Measurements: PubChem BioAssay (NCI)
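Exposure lasted 48 hours, with cells grown in 96-well plates and compounds tested at five concentrations. GI50 = concentration required for 50% inhibition of growth. TGI: concentration producing complete growth inhibition.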

How the values were obtained:
Assay in all cases: NCI tumour cell line growth inhibition, 48 h
MALME-3M melanoma = test system: MALME-3M melanoma
NCI/ADR-RES ovarian = test system: NCI/ADR-RES ovarian
HOP-62 NSCLC = test system: HOP-62 NSCLC
SN12C renal = test system: SN12C renal
SF-295 CNS = test system: SF-295 CNS
U251 CNS = test system: U251 CNS
NCI-H460 lung = test system: NCI-H460 lung
SK-OV-3 ovarian = test system: SK-OV-3 ovarian
HCT-15 colon = test system: HCT-15 colon
HL-60(TB) leukemia = test system: HL-60(TB) leukemia

| Structure (SMILES) | TGI (MALME-3M melanoma) [µM] | TGI (NCI/ADR-RES ovarian) [µM] | TGI (HOP-62 NSCLC) [µM] | TGI (SN12C renal) [µM] | TGI (SF-295 CNS) [µM] | TGI (U251 CNS) [µM] | TGI (NCI-H460 lung) [µM] | TGI (SK-OV-3 ovarian) [µM] | TGI (HCT-15 colon) [µM] | TGI (HL-60(TB) leukemia) [µM] | GI50 (MALME-3M melanoma) [µM] | GI50 (NCI/ADR-RES ovarian) [µM] | GI50 (HOP-62 NSCLC) [µM] | GI50 (SN12C renal) [µM] | GI50 (SF-295 CNS) [µM] | GI50 (U251 CNS) [µM] | GI50 (NCI-H460 lung) [µM] | GI50 (SK-OV-3 ovarian) [µM] | GI50 (HCT-15 colon) [µM] | GI50 (HL-60(TB) leukemia) [µM] |
| --- | --- | --- | --- | --- | --- | --- | --- | --- | --- | --- | --- | --- | --- | --- | --- | --- | --- | --- | --- | --- |
| COC(=O)[C@@H]1O[C@]12[C@@H](CO[Si](C)(C)C(C)(C)C)O[C@@H](n1cc(C)c(=O)[nH]c1=O)[C@@H]2O[Si](C)(C)C(C)(C)C | 43.4 | 33.8 | 70.7 | 27.9 | 49.7 | 24.7 | > 100 | > 100 | 17.3 | 5.47 | – | – | – | – | – | – | – | – | – | – |
| c1cc2ccc1CNCCN1CCNCc3ccc(cc3)Oc3ccc(cc3)CNCCN(CCNCc3ccc(cc3)O2)CCNCc2ccc(cc2)Oc2ccc(cc2)CNCC1 | 3.13 | 63.5 | 2.96 | 1.57 | 3.18 | 1.99 | 3.27 | 3.15 | 20.1 | 2.02 | 1.66 | 16.7 | 1.51 | 0.446 | 1.76 | 0.682 | 1.71 | 1.72 | 4.62 | 0.503 |
